According to ChEMBL document CHEMBL1155680, “A new bioactive triene aldehyde from the marine sponge Leucetta microraphis” (J Nat Prod, 2000):
The source made the active and inactive calls. The rule behind the calls is not given here.

Test system: HeLa
Assay: Growth inhibition of human HeLa S3 cells at 10 ug/ml after 72 hrs by crystal violet assay
Format: functional, cell-based

## CCCCCCCCCC/C=C\C/C=C\CC/C=C(\C)C=O
  Activity: Active
